No end group written: not given here.
Tests used:
[1] = tested on: Zymosan-induced murine dorsal air pouch model; format: in vivo, mice; conditions: 200 μg/mouse i.v., 4 h
Description: In order to analyze the ability of P58 to exert in vivo effects via the FPRL1 receptor, an acute experimental model of inflammation, the Zymosan-induced murine dorsal air pouch model, was used.
Male out-bred Swiss albino mice were purchased from Harlan, UK (T.O. strain) and maintained on a standard chow pellet diet with tap water ad libitum and a 12:00 h light/dark cycle. All animals were housed for 7 days prior to experimentation to allow body weight to reach ˜30 g on the day of the experiment.
Drugs were stored at −20° C. and defrosted on the day of the experiment. Peptide P58 was provided lyophilized; it was taken back to room temperature and dissolved with sterile PBS before use to make an initial 1 mg/ml solution. […]
Flow cytometry was performed using FACScan analyser (Becton Dickinson, Cowley, UK) with air-cooled 100 mW argon laser tuned to 488 nm connected to an Apple Macintosh G3 computer running Cell Quest II software. […] Cells positive for GR-1 were detected in the FL2 channel (wavelength of 548 nm). Data are expressed as percentage of positive cells (in relation to the specific mAb). […] Once determined, quadrants were rigorously maintained for all analyses.
Data are shown for single mice, and also shown as mean±S.E. of (n) mice per group. Statistical differences were determined by ANOVA, plus Student Newman Keuls test. […]

MrgX1 = target: T1, MrgX1 (Homo sapiens, UniProt Q96LB2); test: Calcium flux in CHO-K1 cells co-transfected with MrgX1 and Gα16; format: cell-based; conditions: dose response 1-3000 nM
T1 construct: expressed in transfected cells; host or cells: CHO-K1 (ATCC-CCL-61), transient co-transfection
T1 sequence (Q96LB2 whole entry): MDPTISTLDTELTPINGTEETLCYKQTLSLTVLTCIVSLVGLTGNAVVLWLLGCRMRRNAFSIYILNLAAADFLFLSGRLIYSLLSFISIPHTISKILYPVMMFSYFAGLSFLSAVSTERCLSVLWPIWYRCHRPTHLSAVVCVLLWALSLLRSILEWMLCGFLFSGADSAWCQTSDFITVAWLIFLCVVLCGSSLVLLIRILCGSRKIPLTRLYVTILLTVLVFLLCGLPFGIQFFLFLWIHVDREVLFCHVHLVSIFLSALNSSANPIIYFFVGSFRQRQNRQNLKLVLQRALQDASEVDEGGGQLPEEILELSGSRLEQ
Description: (§1) The assay was carried out in CHO cells were transiently transfected with the GPCR of choice, by utilizing the promiscuous Gα16 to divert signaling to the Gq pathway, thus enabling readout of GPCR activation by testing for Calcium flux as described by Liu et al 2003 (Biomol Screen 8, 39-49).
(§2) All the peptides thus obtained were tested for their ability to change calcium flux in CHO—K1 cells (ATCC-CCL-61) transiently co-transfected with an expression vector containing the GPCR of choice and expression vector containing the Gα16 encoding cDNA. Expression constructs containing cDNA clones for MrgX1, MrgX2, Mas or FPRL1 were commercially obtained in one of the following expression vectors: pcDNA3.1, pCMV6, or MO2.
Transient transfections were performed using CHO—K1 cells as host cells. […]
On the day of the experiment, cells were loaded with Fluo4-NW (Invitrogen) according to the manufacturer's recommendation. Plates were loaded into a FlexStation™ (Molecular Devices) plate reader and fluorescence was monitored. Seventeen seconds following initiation of reading, cells were stimulated with the indicated agonist/compound at final concentration of 1 μM. […]
Based on dose response experiments, EC50 best fit values were calculated by non-linear regression of sigmoidal dose-response curves, using Prism version 4 (GraphPad Software Inc., San Diego, Calif.). […]

FPRL1 [2] = target: T2, FPRL1 (Homo sapiens, UniProt P25090); test: Competitive radioligand binding assay ([125I] WKYMVm) to FPRL1 in CHO transfected cells; set-up: expressed in transfected cells; host or cells: CHO transfected cells; conditions: 0.025 nM [125I] WKYMVm, 90 minutes at 25° C.; read-out: IC50, inhibition of W peptide binding
T2 sequence (P25090 1-351): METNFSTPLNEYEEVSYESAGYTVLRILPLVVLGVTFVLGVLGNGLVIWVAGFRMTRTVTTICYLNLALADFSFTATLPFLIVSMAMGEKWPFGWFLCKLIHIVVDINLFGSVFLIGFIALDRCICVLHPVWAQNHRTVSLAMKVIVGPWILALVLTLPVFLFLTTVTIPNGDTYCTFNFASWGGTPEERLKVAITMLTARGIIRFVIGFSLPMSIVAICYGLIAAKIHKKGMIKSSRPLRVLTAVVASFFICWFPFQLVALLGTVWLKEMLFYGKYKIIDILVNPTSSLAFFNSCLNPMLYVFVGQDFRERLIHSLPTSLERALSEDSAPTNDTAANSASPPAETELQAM
Description: The specific binding of Peptide 58 (SEQ ID NO:1) to FPRL1 was analyzed by testing its ability to compete with 0.025 nM [^125I] WKYMVm (W peptide), a known agonist of FPRL1, for binding to FPRL1 in CHO transfected cells. CKβ8-1 (aa 46-137), another known ligand of FPRL1 was used as a positive control in this assay (Chiang et al 2006, Pharmacological Reviews 58, 463-487). Peptides were incubated with cells for 90 minutes at 25° C., in the presence of Incubation Buffer (50 mM HEPES, pH 7.4, 100 mM NaCl, 5 mM KCl, 5 mM MgCl2, 2 mM Ca Cl2, 0.5% BSA) and the amount of radioactive W peptide was measured.

FPRL1 [3] = target: T2, FPRL1; test: Calcium flux in CHO-K1 cells co-transfected with FPRL1 and Gα16; format: cell-based; set-up: expressed in transfected cells; host or cells: CHO-K1 (ATCC-CCL-61), transient co-transfection
Description: as §1, §2
Transient transfections were performed using CHO—K1 cells as host cells. Cells (12 million) were plated into T75 flasks on the day preceding transfection. Cells were transfected with the appropriate GPCR expression vector and with a vector expressing Gα16 using a lipid-based reagent, MTI, according to the manufacturer's recommendation. Cells were transfected for 5 hours, then re-plated into 96-well dishes (60,000 cells per well) and grown overnight.
On the day of the experiment, cells were loaded with Fluo4-NW (Invitrogen) according to the manufacturer's recommendation. Plates were loaded into a FlexStation™ (Molecular Devices) plate reader and fluorescence was monitored. Seventeen seconds following initiation of reading, cells were stimulated with the indicated agonist/compound at final concentration of 1 μM. Each 96 well plate contained cells transfected with one GPCR expression vector and each of the examined peptides was tested in triplicate.
We defined a hit as a peptide which elicited a clear and distinct increase in intracellular calcium that is clearly visible and statistically significant upon examination of the calcium trace for at least two repeats. The criterion for statistical significance was a p-value lower than 0.001 in a t-test comparing the levels of calcium before and after peptide addition.
Based on dose response experiments, EC50 best fit values were calculated by non-linear regression of sigmoidal dose-response curves, using Prism version 4 (GraphPad Software Inc., San Diego, Calif.). The formulae for the sigmoidal dose-response curves was defined as Y=Bottom+(Top−Bottom)/(1+10^ (LogEC50−X)*HillSlope))
The ability of Peptides to change calcium flux was examined in CHO—K1 cells co-transfected with FPRL1 and Gal 6.

Ac2-26: a peptide derived from the N-terminus of AnnexinI; known FPRL1 agonist possessing anti-inflammatory activity; positive control (AMVSEFLKQAWFIENEEQEYVQTVK)
inhibition of leukocyte accumulation triggered by zymosan A [1]: inhibited significantly
inhibition of neutrophil (GR-1+) accumulation triggered by zymosan A ([1]; FACS): 52%

CSCC[C@H](NC(=O)[C@H](Cc1ccccc1)NC(=O)CNC(=O)CNC(=O)[C@@H](N)Cc1ccc(O)cc1)C(=O)N[C@@H](CCCNC(=N)N)C(=O)N[C@@H](CCCNC(=N)N)C(=O)N[C@H](C(=O)NCC(=O)N[C@@H](CCCNC(=N)N)C(=O)N1CCC[C@H]1C(=O)N[C@@H](CCC(=O)O)C(=O)N[C@@H](Cc1c[nH]c2ccccc12)C(=O)N[C@@H](Cc1c[nH]c2ccccc12)C(=O)N[C@@H](CCSC)C(=O)N[C@@H](CC(=O)O)C(=O)N[C@@H](Cc1ccc(O)cc1)C(=O)N[C@@H](CCC(N)=O)C(=O)N[C@@H](CCCCN)C(=O)N[C@@H](CCCNC(=N)N)C(=O)N[C@@H](Cc1ccc(O)cc1)C(=O)NCC(=O)O)C(C)C [BAM22, reference compound]
EC50 (MrgX1): ≥ 50 nM

GIGSVWHWKHRVATRFTLPRFLQ [Peptide P60_S]
EC50 (MrgX1): ≥ 300 nM

TIPMFVPESTSKLQKFTSWFM-NH2 [Peptide P58]
IC50 (FPRL1 [2]): 189 nM
calcium flux relative to the negative control (FPRL1 [3]; 1 μM, three wells, about 20 to 90 seconds): increased calcium flux
calcium flux, P58 and derivatives (FPRL1 [3]; dose response): elicited calcium flux

Source: patent US8349801B2, “Peptide ligands for G-protein coupled receptors” (priority 2006, dated 2013)
